Data: ChEMBL document CHEMBL1201862, “PubChem BioAssay data set” (2004)
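In this assay, cells in 96-well plates receive the compound at five concentrations for 48 hours. Endpoints are linearly interpolated between the surrounding concentrations. GI50: concentration for 50% inhibition of growth.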 Active and inactive are the calls of the source. Cut-off read from the data, not from the text of the source: active = GI50 up to about 1.1 µM and inactive = higher.

Key:
Experiment in all cases: DTP human tumour cell line panel, 48 h
LOX IMVI = tested on: LOX IMVI
CCRF-CEM = tested on: CCRF-CEM
SNB-19 = tested on: SNB-19
A549 = tested on: A549
M19-MEL = tested on: M19-MEL
OVCAR-8 = tested on: OVCAR-8
OVCAR-3 = tested on: OVCAR-3
DMS-273 = tested on: DMS-273
SW-620 = tested on: SW-620
HL-60 = tested on: HL-60
KM-20L2 = tested on: KM-20L2
SK-MEL-5 = tested on: SK-MEL-5
KM12 = tested on: KM12
COLO 205 = tested on: COLO 205
HT-29 = tested on: HT-29
HOP-62 = tested on: HOP-62
HCT-116 = tested on: HCT-116
UO-31 = tested on: UO-31
XF498 = tested on: XF498
SK-OV-3 = tested on: SK-OV-3

SMILES	GI50 (LOX IMVI)	GI50 (CCRF-CEM)	GI50 (SNB-19)	GI50 (A549)	GI50 (M19-MEL)	GI50 (OVCAR-8)	GI50 (OVCAR-3)	GI50 (DMS-273)	GI50 (SW-620)	GI50 (HL-60)	GI50 (KM-20L2)	GI50 (SK-MEL-5)	GI50 (KM12)	GI50 (COLO 205)	GI50 (HT-29)	GI50 (HOP-62)	GI50 (HCT-116)	GI50 (UO-31)	GI50 (XF498)	GI50 (SK-OV-3)
Cc1cc(O)nc(NN2C(Cl)C(=O)C2c2ccco2)n1 (configuration not stated)	23.3 µM (inactive)	8.2 µM (inactive)	32 µM (inactive)	77.6 µM (inactive)	39.5 µM (inactive)	46.5 µM (inactive)	15.2 µM (inactive)	33.7 µM (inactive)	64.9 µM (inactive)	15.3 µM (inactive)	39.4 µM (inactive)	41.7 µM (inactive)	44.6 µM (inactive)	78.2 µM (inactive)	34 µM (inactive)	32.6 µM (inactive)	43.4 µM (inactive)	23.1 µM (inactive)		
Nc1ccn(C2OC(CO)C(O)C2O)c(=O)c1 (configuration not stated)	143 µM (inactive)	> 625 µM (inactive)	> 625 µM (inactive)	179 µM (inactive)		137 µM (inactive)	> 625 µM (inactive)	165 µM (inactive)	610 µM (inactive)	239 µM (inactive)	566 µM (inactive)	> 625 µM (inactive)	> 625 µM (inactive)	164 µM (inactive)	270 µM (inactive)	136 µM (inactive)	125 µM (inactive)	360 µM (inactive)	< 0.0625 µM (active)	> 625 µM (inactive)
CC(=N/NC(=S)Nc1c(C)n(C)n(-c2ccccc2)c1=O)/C(C)=N\NC(=S)Nc1c(C)n(C)n(-c2ccccc2)c1=O			> 100 µM (inactive)	> 100 µM (inactive)		> 100 µM (inactive)	> 100 µM (inactive)		> 100 µM (inactive)	> 100 µM (inactive)		> 100 µM (inactive)	> 100 µM (inactive)	> 100 µM (inactive)	> 100 µM (inactive)	> 100 µM (inactive)	> 100 µM (inactive)	> 100 µM (inactive)		> 100 µM (inactive)
CC(=O)Nc1ccc(C(=O)N2N=C(C)/C(=C/c3ccc(O)cc3)C2=O)cc1	> 100 µM (inactive)	> 100 µM (inactive)	> 100 µM (inactive)	> 100 µM (inactive)	> 100 µM (inactive)	> 100 µM (inactive)	> 100 µM (inactive)	> 100 µM (inactive)	> 100 µM (inactive)	> 100 µM (inactive)		> 100 µM (inactive)	> 100 µM (inactive)	> 100 µM (inactive)	> 100 µM (inactive)	> 100 µM (inactive)	> 100 µM (inactive)	> 100 µM (inactive)	> 100 µM (inactive)	
O=C(O)c1c[nH]c2c(=O)[nH]cnc12	> 100 µM (inactive)	> 100 µM (inactive)	> 100 µM (inactive)	> 100 µM (inactive)	> 100 µM (inactive)	> 100 µM (inactive)	> 100 µM (inactive)		> 100 µM (inactive)	> 100 µM (inactive)		> 100 µM (inactive)	> 100 µM (inactive)	> 100 µM (inactive)	> 100 µM (inactive)	> 100 µM (inactive)	> 100 µM (inactive)	> 100 µM (inactive)		> 100 µM (inactive)
COc1ccc(-c2c3c(nc4[nH]c(=S)[nH]c(=S)c24)CCCC3)cc1OC	16.8 µM (inactive)	28.5 µM (inactive)	34.3 µM (inactive)	21.3 µM (inactive)		23.9 µM (inactive)	52.1 µM (inactive)		35.8 µM (inactive)	24.7 µM (inactive)		16.6 µM (inactive)	30.9 µM (inactive)	45 µM (inactive)	22.1 µM (inactive)	19.6 µM (inactive)	29.4 µM (inactive)	14.6 µM (inactive)		44.4 µM (inactive)
Cc1cccc(NC(N)=S)c1	> 100 µM (inactive)	> 100 µM (inactive)	> 100 µM (inactive)		> 100 µM (inactive)		> 100 µM (inactive)			> 100 µM (inactive)			> 100 µM (inactive)		> 100 µM (inactive)	> 100 µM (inactive)	> 100 µM (inactive)	> 100 µM (inactive)	> 100 µM (inactive)	> 100 µM (inactive)
C/C(N)=N/OCc1nc(C)no1		> 100 µM (inactive)	> 100 µM (inactive)	> 100 µM (inactive)		> 100 µM (inactive)	> 100 µM (inactive)		> 100 µM (inactive)	> 100 µM (inactive)		> 100 µM (inactive)	> 100 µM (inactive)	> 100 µM (inactive)	> 100 µM (inactive)	> 100 µM (inactive)	> 100 µM (inactive)	> 100 µM (inactive)		> 100 µM (inactive)
COc1cc(CNc2nc3c(NC(C)=O)cc(C(F)(F)F)cc3nc2-c2ccccc2)cc(OC)c1OC	> 100 µM (inactive)	> 100 µM (inactive)	> 100 µM (inactive)	> 100 µM (inactive)	> 100 µM (inactive)	> 100 µM (inactive)	> 100 µM (inactive)	> 100 µM (inactive)	> 100 µM (inactive)		> 100 µM (inactive)	> 100 µM (inactive)	> 100 µM (inactive)	> 100 µM (inactive)		> 100 µM (inactive)	> 100 µM (inactive)	> 100 µM (inactive)	26.5 µM (inactive)	> 100 µM (inactive)
COc1ccc(C(=C2C=CC=C2)c2ccc(OC)cc2)cc1	17.2 µM (inactive)	21.9 µM (inactive)	28 µM (inactive)	44.9 µM (inactive)		44.5 µM (inactive)	47.1 µM (inactive)		32.6 µM (inactive)	36.4 µM (inactive)		30.2 µM (inactive)	45.9 µM (inactive)	23.7 µM (inactive)	24 µM (inactive)	39.9 µM (inactive)	26.4 µM (inactive)	28.5 µM (inactive)		18.2 µM (inactive)
CC12CCC(C(=O)OC1=O)C(C)(C)O2 (configuration not stated)	> 100 µM (inactive)	> 100 µM (inactive)	> 100 µM (inactive)	> 100 µM (inactive)		> 100 µM (inactive)	> 100 µM (inactive)		> 100 µM (inactive)			> 100 µM (inactive)	> 100 µM (inactive)	> 100 µM (inactive)	> 100 µM (inactive)	> 100 µM (inactive)	> 100 µM (inactive)	> 100 µM (inactive)		> 100 µM (inactive)
O=C(O)C(Br)Cc1ccc2c(c1)OCO2 (configuration not stated)		> 100 µM (inactive)	> 100 µM (inactive)	> 100 µM (inactive)	69.2 µM (inactive)		> 100 µM (inactive)		> 100 µM (inactive)	> 100 µM (inactive)	> 100 µM (inactive)	> 100 µM (inactive)	> 100 µM (inactive)	55.7 µM (inactive)	> 100 µM (inactive)	> 100 µM (inactive)	> 100 µM (inactive)	> 100 µM (inactive)	24 µM (inactive)	> 100 µM (inactive)
COc1ccc([C@@H]2ON(C)[C@H]3CN(C)C(=O)[C@@H]23)cc1	> 100 µM (inactive)	> 100 µM (inactive)	> 100 µM (inactive)	> 100 µM (inactive)		> 100 µM (inactive)	> 100 µM (inactive)		> 100 µM (inactive)	> 100 µM (inactive)		> 100 µM (inactive)		> 100 µM (inactive)	> 100 µM (inactive)	> 100 µM (inactive)	> 100 µM (inactive)	> 100 µM (inactive)		> 100 µM (inactive)
COP(=O)(OC)C(Cc1c[nH]c2ccccc12)NC(=O)OCc1ccccc1 (configuration not stated)	> 100 µM (inactive)	5.89 µM (inactive)	> 100 µM (inactive)	> 100 µM (inactive)		> 100 µM (inactive)	40.5 µM (inactive)		> 100 µM (inactive)	> 100 µM (inactive)		> 100 µM (inactive)		> 100 µM (inactive)	> 100 µM (inactive)	> 100 µM (inactive)	> 100 µM (inactive)	> 100 µM (inactive)		> 100 µM (inactive)
O=C(Nc1c(Cl)cc([N+](=O)[O-])cc1Cl)/C(=N\Nc1cccc(Cl)c1)c1c(O)c2ccccc2oc1=O		75.2 µM (inactive)	87.1 µM (inactive)	> 100 µM (inactive)	> 100 µM (inactive)	> 100 µM (inactive)	> 100 µM (inactive)		> 100 µM (inactive)	71.9 µM (inactive)	> 100 µM (inactive)	> 100 µM (inactive)	> 100 µM (inactive)	> 100 µM (inactive)	> 100 µM (inactive)	74 µM (inactive)	56.1 µM (inactive)	23.6 µM (inactive)		> 100 µM (inactive)
Oc1[nH]c(Nc2cccc(Br)c2)nc2ncnc1-2	> 100 µM (inactive)	54.7 µM (inactive)	71.8 µM (inactive)	> 100 µM (inactive)		> 100 µM (inactive)	89.5 µM (inactive)		> 100 µM (inactive)	11.6 µM (inactive)		> 100 µM (inactive)	> 100 µM (inactive)	> 100 µM (inactive)	82.6 µM (inactive)		53.8 µM (inactive)	> 100 µM (inactive)		> 100 µM (inactive)
CC1CC2C3CCC4=CC(=O)C=CC4(C)C3(F)C(O)CC2(C)C1(O)C(=O)COP(=O)(O)O (configuration not stated)	> 100 µM (inactive)	0.144 µM (active)	> 100 µM (inactive)	> 100 µM (inactive)	> 100 µM (inactive)	> 100 µM (inactive)	> 100 µM (inactive)	> 100 µM (inactive)	> 100 µM (inactive)	> 100 µM (inactive)	> 100 µM (inactive)	> 100 µM (inactive)	> 100 µM (inactive)	> 100 µM (inactive)	> 100 µM (inactive)	> 100 µM (inactive)	> 33.7 µM (inactive)	> 100 µM (inactive)	> 100 µM (inactive)	
